Source: patent US9815868B2, “Peptides binding to parallel-stranded G-quadruplexes” (NANYANG TECHNOLOGICAL UNIVERSITY, priority 2013, dated 2017)

Assays:
G-quadruplexes = conditions: literature statement; cited from earlier work
[1] = molecular target: Htelo1 hybrid "3+1" form 1 G-quadruplex; assay: Quantitative gel mobility shift assay, Htelo1 in dilute condition; set-up: species or system human; conditions: Htelo1 hybrid "3+1" form 1, dilute condition; read-out: apparent binding
Procedure: (§1) (A) T95_2 T and Htelo1 at a concentration of 100 nM were incubated for 15 minutes at room temperature with an increasing concentration of Rhau55. (B) Quantification of gel electrophoresis assays bands of T95_2 T (black dot) and Htelo1 in dilute (open square) and crowding condition (black cross).
(§2) Subsequently, a quantitative analysis of the interaction between Rhau55 and three G-quadruplexes was performed using gel electrophoresis (FIG. 4). The analysis indicated a dissociation constant of 1029 nM and 989 nM for the parallel-type form of Htelo1 (under crowded condition) and the single, loop propeller-type T95_2 T, respectively, consistent with previous published data for the full-length protein (Tran H et al. (2004) Mol Cell, 13, 101). In contrast an apparent binding of >10 μM was found with the hybrid “3+1” form 1, and an estimated Kd over 10 μM was found for Htelo2, Htelo3 and Hetol4 non-parallel forming sequences, highlighting a net preference for the human telomeric sequences forming a parallel-type G-quadruplex. From the data little effect on three (Htelo1, parallel form) and single (T95_2T) loop size was observed on Rhau55 binding affinity.

[2] = molecular target: Htelo3 non-parallel G-quadruplex; assay: Gel electrophoresis binding, Htelo3; set-up: species or system human; conditions: Htelo3 non-parallel forming sequence; read-out: estimated Kd
Procedure: (§3) DNA concentrations were fixed at 100 nM and Rhau55 was 1 μM, in 70 mM KCL and 20 mM phosphate buffer (pH=6.8).
(§4) To confirm that the observed selective effect was based on the structure rather than sequence, the binding of Rhau55 was tested using the human telomeric sequences in K^+-containing solution, with and without crowded condition (40% v/v PEG200). In diluted solutions the human telomeric sequences Htelo1, Htelo2, Htelo3 and Helo4 form a distinct and non-parallel G-quadruplex (Luu K N et al. (2006) J Am ChemSoc, 128(30), 9963-9970; Phan A T et al. (2006) Nucleic Acids Res, 34(19), 5715-5719; Lim K W et al. (2009) J Am ChemSoc, 131(12), 4301-430; Lim K W et al. (2009) Nucleic Acids Res, 37(18), 6239-6248), however in crowded conditions those sequences form a propeller-type parallel stranded G-quadruplex.
(§5) Subsequently, a quantitative analysis of the interaction between Rhau55 and three G-quadruplexes was performed using gel electrophoresis (FIG. 4). The analysis indicated a dissociation constant of 1029 nM and 989 nM for the parallel-type form of Htelo1 (under crowded condition) and the single, loop propeller-type T95_2 T, respectively, consistent with previous published data for the full-length protein (Tran H et al. (2004) Mol Cell, 13, 101). […]

[3] = molecular target: parallel-type form of Htelo1 (under crowded condition); assay: Quantitative gel mobility shift assay, Htelo1 in crowding condition (40% PEG); format: binding, human; conditions: parallel-type form of Htelo1 under crowded condition (40% PEG); gel electrophoresis; read-out: dissociation constant
Procedure: as §1, §4
Subsequently, a quantitative analysis of the interaction between Rhau55 and three G-quadruplexes was performed using gel electrophoresis (FIG. 4). […]

[4] = system: mixture of T95_2T (propeller parallel form) and HT1 (non-parallel); assay: NMR imino proton spectra of a mixture of HT1 and T95_2T with Rhau55; format: binding; conditions: Rhau55 added to mixture of T95_2T (parallel) and HT1 (non-parallel)
Description: (§6) Rhau55 binds to various parallel G-quadruplexes DNA and RNA (FIGS. 1 and 3-5) but not to various forms of non-parallel G-quadruplexes (FIGS. 1 and 6).

[5] = system: human telomeric sequences Htelo1-Htelo4 G-quadruplexes; assay: Gel shift assay of human telomeric sequences with and without crowded condition (40% v/v PEG200); format: binding; conditions: human telomeric sequences in K+ solution, dilute (non-parallel) vs crowded 40% v/v PEG200 (parallel)
Procedure: as §3, §4

[6] = molecular target: T95_2T (single loop propeller-type parallel G-quadruplex); assay: Quantitative gel mobility shift assay of Rhau55 binding to T95_2T; conditions: gel electrophoresis, DNA 100 nM, read-out: dissociation constant
Procedure: as §1, §2

[7] = molecular target: Htelo2 non-parallel G-quadruplex; assay: Gel electrophoresis binding, Htelo2; set-up: species or system human; conditions: Htelo2 non-parallel forming sequence; read-out: estimated Kd
Procedure: as §3, §4, §5

[8] = molecular target: Htelo4 non-parallel G-quadruplex; assay: Gel electrophoresis binding, Htelo4; set-up: species or system human; conditions: Hetol4 non-parallel forming sequence; read-out: estimated Kd
Procedure: as §3, §4, §5

[9] = system: parallel G-quadruplexes DNA and RNA (93del, CEB25, Pu24T, CEB1, TERC18, 12 nt TER, 10 nt TER); assay: Native gel electrophoresis of Rhau55 with parallel G-quadruplexes; format: binding; conditions: various parallel G-quadruplexes DNA and RNA; DNA 100 μM, 70 mM KCl, 20 mM phosphate pH 6.8
Procedure: The ratio between Rhau55 and Nucleic acids is indicated on top of each lane. DNA concentrations were fixed at 100 μM, in 70 mM KCL and 20 mM phosphate buffer (pH=6.8).
Rhau55 was expressed in Escherichia coli. The binding of Rhau55 to different G-quadruplexes nucleic acids topology was first tested using gel electrophoresis.
as §6

Row | Kd [1] | Kd [2] | Kd [3] | Kd [6] | Kd [7] | Kd [8] | binding in gel electrophoresis [9] | Compound | dissociation constant Kd (G-quadruplexes) | effect on NMR imino proton peaks [4] | binding in gel shift assay [5]
1 | – | – | – | – | – | – | – | C[n+]1cc(NC(=O)c2ccc3ccc4ccc(C(=O)Nc5cc6ccccc6[n+](C)c5)nc4c3n2)cc2ccccc21 [Phen-DC3] | nanomolar range | – | –
2 | > 10 µM | > 10 µM | 1.03 µM | 0.989 µM | > 10 µM | > 10 µM | binds | Rhau55: G-quadruplex binding domain of human helicase Rhau (DHX36), N-terminal residues 53 to 105, expressed in Escherichia coli (HPGHLKGREIGMWYAKKQGQKNKEAERQERAVVHMDERREEQIVQLLNSVQAK; UniProt Q9H2U1 53-105, looked up, fragment) | – | only affect the peaks of the former form | binds significantly only to a parallel-type G-quadruplex
